Some test systems named below: DMS-114; HOP-18; DLD-1; LXFL 529; XF498; DMS-273; RXF 631; KM-20L2; M19-MEL.
What all share (experiment): growth of human tumour cells (NCI), 48 h

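Tested at 5 concentrations; 48 h exposure; 96-well plates; endpoints linearly interpolated, else capped at highest concentration. Here, GI50 denotes the concentration required for 50% inhibition of growth.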 Calls of active or inactive are those of the source. No stated cut-off is given here; in the data, active = GI50 up to about 1.1 µM and inactive = higher.

The values below come from ChEMBL document CHEMBL1201862, “PubChem BioAssay data set” (2004).

In the case of `COc1cccc2c1C(=O)c1c(O)c3c(c(O)c1C2=O)C[C@@](O)(C(C)O)C[C@@H]3OC1CC(N)C(O)C(C)O1` (stereo partly drawn), the GI50 in the assay with DMS-114 is 0.163 µM (active); in the assay with HOP-18, 0.00497 µM (active); in the assay with DLD-1 it was 2.99 µM (inactive); in the assay with LXFL 529, 1.02 µM (active); in the assay with XF498, 0.614 µM (active); in the assay on DMS-273, 0.569 µM (active). The results for the GI50 with RXF 631, in the assay on KM-20L2 and in the assay with M19-MEL were 2 µM (inactive), 3.24 µM (inactive) and 1.16 µM (inactive), respectively.
With `Cc1cc(NS(=O)(=O)c2ccc(NC(=O)c3ccc(Cl)c4c(Nc5ccc(S(N)(=O)=O)cc5)c5ccccc5nc34)cc2)no1`, the GI50 was 20.2 µM (inactive) with DMS-114; 30.1 µM (inactive) with HOP-18; 21.7 µM (inactive) with DLD-1; 15.9 µM (inactive) with LXFL 529; 19.5 µM (inactive) in the assay with XF498; 21.5 µM (inactive) with DMS-273. In addition, the GI50 in the assay on RXF 631 is 21.6 µM (inactive); in the assay with KM-20L2 it was 24.5 µM (inactive); in the assay with M19-MEL, 20 µM (inactive).
